molecular target: T1, recombinant human GR (Homo sapiens, UniProt P04150); experiment: Human Glucocorticoid Receptor (GR) Assay (fluorescence polarization, Panvera/Invitrogen kit); type: binding; conditions: not given
T1 construct: purchased Panvera/Invitrogen P2812 (kit P2893)
T1 sequence (P04150 1-777): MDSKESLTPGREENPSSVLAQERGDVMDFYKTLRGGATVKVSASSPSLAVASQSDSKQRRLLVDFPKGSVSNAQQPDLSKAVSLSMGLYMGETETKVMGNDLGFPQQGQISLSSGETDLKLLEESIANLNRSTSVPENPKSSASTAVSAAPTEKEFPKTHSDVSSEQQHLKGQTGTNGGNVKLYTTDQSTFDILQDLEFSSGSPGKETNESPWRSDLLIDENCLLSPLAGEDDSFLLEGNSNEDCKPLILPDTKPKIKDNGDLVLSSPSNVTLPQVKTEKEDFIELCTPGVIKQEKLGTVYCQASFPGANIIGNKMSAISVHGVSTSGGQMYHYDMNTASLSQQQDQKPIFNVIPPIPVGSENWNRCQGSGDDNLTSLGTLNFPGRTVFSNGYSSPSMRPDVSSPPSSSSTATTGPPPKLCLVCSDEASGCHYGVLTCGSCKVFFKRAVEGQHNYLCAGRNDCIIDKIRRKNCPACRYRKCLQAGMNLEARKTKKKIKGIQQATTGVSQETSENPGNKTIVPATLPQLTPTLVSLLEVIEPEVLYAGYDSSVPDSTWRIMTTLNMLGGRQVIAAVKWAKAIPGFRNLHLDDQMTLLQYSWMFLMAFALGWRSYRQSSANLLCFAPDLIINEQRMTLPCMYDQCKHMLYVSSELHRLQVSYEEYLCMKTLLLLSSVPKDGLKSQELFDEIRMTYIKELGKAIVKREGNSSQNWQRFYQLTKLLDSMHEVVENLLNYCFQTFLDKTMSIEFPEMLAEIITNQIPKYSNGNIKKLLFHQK
Experimental: Human Glucocorticoid Receptor (GR) Assay
The assay is based on a commercial kit from Panvera/Invitrogen (Part number P2893). The assay technology is fluorescence polarization. […] The GR and Stabilizing Peptide reagents are stored at −70° C. while the GS Red is stored at −20° C. Also included in the kit are 1M DTT (Panvera, Part number P2325, stored at −20° C.) and GR Screening buffer 10× (Panvera, Part number P2814, stored at −70° C. initially but once thawed stored at room temperature). Avoid repeated freeze/thaws for all reagents. The GR Screening buffer 10× comprises 100 mM potassium phosphate, 200 mM sodium molybdate, 1 mM EDTA and 20% DMSO.
0% control was 100% DMSO and 100% control was 10 μM Dexamethasone. Background solution (8 μL; assay buffer 10×, Stabilizing Peptide, DTT and ice cold MQ water) was added to the background wells. GS Red solution (7 μL; assay buffer 10×, Stabilizing Peptide, DTT, GS Red and ice cold water) was added to all wells except background wells. GR solution (7 μL; assay buffer 10×, Stabilizing Peptide, DTT, GR and ice cold water) was added to all wells. The plate was sealed and incubated in a dark at room temperature for 2 hours.

Compound | IC50 [nM]
C[C@]12Cc3cnn(-c4ccc(F)cc4)c3C=C1CC[C@@H]1[C@@H]2[C@@H](O)C[C@@]2(C)[C@H]1CC[C@]2(OC(=O)CF)C(=O)SCC#N [Example 27, (1R,3aS,3bS,10aR,10bS,1,1S,12aS)-1-{[(Cyanomethyl)thio]carbonyl}-7-(4-fluoro-phenyl)-11-hydroxy-10a,12a-dimethyl-1,2,3,3a,3b,4,5,7,10,10a,10b,11,12,12a-tetradecahydrocyclopenta[5,6]naphtho[1,2-f]indazol-1-yl fluoroacetate] | 3
C[C@]12Cc3cnn(-c4ccc(F)cc4)c3C=C1CC[C@@H]1[C@@H]2[C@@H](O)C[C@@]2(C)[C@H]1CC[C@]2(OC(=O)CF)C(=O)SCF [Example 28, (1R,3aS,3bS,10aR,10bS,11S,12aS)-1-{[(Fluoromethyl)thio]carbonyl}-7-(4-fluoro-phenyl)-11-hydroxy-10a,12a-dimethyl-1,2,3,3a,3b,4,5,7,10,10a,10b,11,12,12a-tetradecahydrocyclopenta[5,6]naphtho[1,2-f]indazol-1-yl fluoroacetate] | 4.2

same assay, conditions: fluorescence polarization; GS Red tracer; 2 hours at room temperature; 100% control 10 μM Dexamethasone; read-out: Inhibition of GR binding, IC50

Compound | IC50 [nM]
CC(=O)OCC(=O)O[C@]1(C(=O)SCC#N)CC[C@H]2[C@@H]3CCC4=Cc5c(cnn5-c5ccc(F)cc5)C[C@]4(C)[C@H]3[C@@H](O)C[C@@]21C [Example 29, (1R,3aS,3bS,10aR,10bS,11S,12aS)-1-{[(Cyanomethyl)thio]carbonyl}-7-(4-fluoro-phenyl)-11-hydroxy-10a,12a-dimethyl-1,2,3,3a,3b,4,5,7,10,10a,10b,11,12,12a-tetradecahydrocyclopenta[5,6]naphtho[1,2-f]indazol-1-yl (acetyloxy)acetate] | 5.7
COCC(=O)O[C@]1(C(=O)SCC#N)CC[C@H]2[C@@H]3CCC4=Cc5c(cnn5-c5ccc(F)cc5)C[C@]4(C)[C@H]3[C@@H](O)C[C@@]21C [Example 30, (1R,3aS,3bS,10aR,10bS,11S,12aS)-1-{[(Cyanomethyl)thio]carbonyl}-7-(4-fluoro-phenyl)-11-hydroxy-10a,12a-dimethyl-1,2,3,3a,3b,4,5,7,10,10a,10b,11,12,12a-tetradecahydrocyclopenta[5,6]naphtho[1,2-f]indazol-1-yl methoxyacetate] | 3.1
COCC(=O)O[C@]1(C(=O)SCC#CCO)CC[C@H]2[C@@H]3CCC4=Cc5c(cnn5-c5ccc(F)cc5)C[C@]4(C)[C@H]3[C@@H](O)C[C@@]21C [Example 31, (1R,3aS,3bS,10aR,10bS,11S,12aS)-7-(4-Fluorophenyl)-11-hydroxy-1-{[(4-hydroxy-but-2-yn-1-yl)thio]carbonyl}-10a,12a-dimethyl-1,2,3,3a,3b,4,5,7,10,10a,10b,11,12,12a-tetradecahydrocyclopenta[5,6]naphtho[1,2-f]indazol-1-yl methoxyacetate] | 4.5
COCC(=O)O[C@]1(C(=O)SCCO)CC[C@H]2[C@@H]3CCC4=Cc5c(cnn5-c5ccc(F)cc5)C[C@]4(C)[C@H]3[C@@H](O)C[C@@]21C [Example 32, (1R,3aS,3bS,10aR,10bS,11S,12aS)-7-(4-Fluorophenyl)-11-hydroxy-1-{[(2-hydroxy-ethyl)thio]carbonyl}-10a,12a-dimethyl-1,2,3,3a,3b,4,5,7,10,10a,10b,11,12,12a-tetradecahydrocyclopenta[5,6]naphtho[1,2-f]indazol-1-yl methoxyacetate] | 1.6
COCC(=O)O[C@]1(C(=O)SCC(C)=O)CC[C@H]2[C@@H]3CCC4=Cc5c(cnn5-c5ccc(F)cc5)C[C@]4(C)[C@H]3[C@@H](O)C[C@@]21C [Example 33, (1R,3aS,3bS,10aR,10bS,11S,12aS)-7-(4-Fluorophenyl)-11-hydroxy-10a,12a-dimethyl-1-{[(2-oxopropyl)thio]carbonyl}-1,2,3,3a,3b,4,5,7,10a,10 b,11,12,12a-tetradecahydrocyclopenta[5,6]naphtho[1,2-f]indazol-1-yl methoxyacetate] | 2.7

Reference: patent US8163724B2, “Glucocorticosteroids, processes for their preparation, pharmaceutical compositions containing them and their use in therapy” (AstraZeneca AB, priority 2007, dated 2012)
